“Also recorded” adds a separate entry of the source. Read-outs that look alike come from different tables or passages of the source.
What was measured:
[1] = Plasma pharmacokinetics after a single IV tail vein injection; format: in vivo, BALB/C mice; conditions: for half-life / Cmax / AUC(0-inf) / clearance: iv; for concentration at 24 h: 24 h after single IV, read-out: average plasma concentration 24 h postinjection
Procedure: Pyrrole–imidazole polyamide pharmacokinetic studies were performed in 10- to 12-week-old female BALB/C mice (Charles River). Polyamides were solubilized in PBS (1) or PBS/DMSO (2) and administered via intravenous (IV) tail vein injection at concentrations of 7.5 and 5 mg/kg, respectively. For each experiment, groups of 3 animals were euthanized at 0.083, 0.25, 0.5, 1, 2, 4, 8, and 24 h after injection. Animals designated for the 4, 8, and 24 h time points were housed in metabolic cages for collection of urine and feces as described below. All animals used in the pharmacokinetic experiments were performed under an approved protocol at the City of Hope.
Concentrations of polyamides 1 and 2 were analyzed by LC/MS/MS using a Waters Acquity UPLC system (Milford, MA, USA) interfaced with a Waters Quattro Premier XE Mass Spectrometer. HPLC separation was achieved using a Jupiter 4u Proteo 90A 150 × 2.0 mm column (Phenomenex, Torrance, CA, USA) proceeded by a Phenomenex C8 guard column (Torrance, CA, USA). The column temperature was maintained at 30 °C. The mobile phase consisted of A (0.05 % acetic acid in water) and B (0.05 % acetic acid in acetonitrile). The following gradient program was used: 8 % B (0–1 min, 0.3 ml/min), 16 % B (3 min, 0.3 ml/min), 58 % B (6 min, 0.3 ml/min), 90 % B (7 min, 0.3 ml/min), and 8 % B (7.3 min, 0.3 ml/min). The total run time was 11.5 min. The auto-injector temperature was maintained at 5 °C. The strong needle wash solution was 5 % formic acid in MeOH/ACN (2:8) for both compounds, and the weak needle wash solution was 30 % MeOH in water for compound 1 and 50 % ACN in water for compound 2. The electrospray ionization source of the mass spectrometer was operated in positive ion mode with a cone gas flow of 50 L/hr and a desolvation gas flow of 700 L/hr. The capillary voltage was set to 3.2 kV, and the cone and collision cell voltages were optimized to 32 and 27 V for 1 and the INS 3. Voltages were optimized to 31 and 20 V for 2 and the INS 4. The source temperature was 125 °C, and the desolvation temperature was 470 °C. A solvent delay program was used from 0 to 4.0 min and from 6.1 to 11.5 min to minimize the mobile phase to flow to the source. MassLynx version 4.1 software was used for data acquisition and processing.
Plasma and urine samples were prepared for LC/MS/MS analysis by mixing 30 μL of plasma with 20 μL of 50 % MeOH and 50 % aqueous 1 % HOAc. The mixture was vortexed and mixed with an additional 120 μL of 0.5 % HOAc in MeOH/ACN (4:6) and 20 μL of 6.0 μg/mL INS in MeOH/1 % aqueous HOAc (1:1). The mixture was vortexed again for 2 min and centrifuged at the highest setting for 4 min. Next, 20 μL of the supernatant was transferred to a new tube and mixed with 180 μL of 50 % MeOH/ACN (4:6) and 50 % aqueous 1 % HOAc.
Standard curves were prepared mixing untreated plasma with 20 μL of 50 % MeOH and 50 % aqueous 1 % HOAc prepared with various concentrations of 1 and 2. Internal standards were added as described above.
Plasma pharmacokinetic parameters were derived from polyamide concentration profiles using both non-compartmental and compartmental methods. Non-compartmental analysis was performed according to statistical moment theory and the rule of linear trapezoids, while compartmental analysis was performed in ADAPT II [24]. Pharmacokinetic parameters estimated from the non-compartmental analysis include the maximum concentration (C max), the terminal elimination half-life (t 1/2), the mean residence time (MRT), the area under the concentration curve (AUC0–24h), the AUC extrapolated to infinity (AUC0–∞), and the clearance (CL). Additional plasma pharmacokinetic parameters determined from the compartmental analysis include the alpha and beta half-lives (t 1/2) and the apparent volume of distribution (V d). Tissue pharmacokinetic parameters were determined non-compartmentally and included the C max and AUC0–24h. […]

[2] = test system: 5′-WGWWCW-3′ sequence (androgen response element DNA); design: method as in PMID 18459783, PMID 22080545, PMID 17566103; conditions: cited from earlier work
[3] = design: method as in PMID 19413319; conditions: previous ADMET study; cited from earlier work
Aqueous solubility = format: physicochemical; conditions: 2 requires a polar aprotic cosolvent like DMSO for administration
[4] = female, BALB/C, mouse, plasma, compartmental analysis, single IV, 7.5 mg/kg (1), 5 mg/kg (2)
[5] = female, BALB/C, mouse, plasma, non-compartmental analysis, single IV, 7.5 mg/kg (1), 5 mg/kg (2)
[6] = female, BALB/C, mouse, plasma, 7.5 mg/kg (1), 5 mg/kg (2)
[7] = plasma, compartmental analysis, single IV, 7.5 mg/kg (1), 5 mg/kg (2)
[8] = plasma, non-compartmental analysis, single IV, 7.5 mg/kg (1), 5 mg/kg (2)

SMILES: CN(CCCNC(=O)c1cccc(C(=O)O)c1)CCCNC(=O)c1cc(NC(=O)c2cc(NC(=O)c3cc(NC(=O)c4nc(NC(=O)[C@H](N)CCNC(=O)c5cc(NC(=O)c6cc(NC(=O)c7cc(NC(=O)c8nccn8C)cn7C)cn6C)cn5C)cn4C)cn3C)cn2C)cn1C [Polyamide 1]
- half-life ([1]; female, BALB/C, mouse, plasma, plasma, compartmental analysis, single IV, 7.5 mg/kg (1), 5 mg/kg (2), read-out: t 1/2 α (initial) (converted)): 0.5 h
- half-life ([1]; female, BALB/C, mouse, plasma, plasma, compartmental analysis, single IV, 7.5 mg/kg (1), 5 mg/kg (2), read-out: t 1/2 β (terminal) (converted)): 4.6 h
- half-life ([1]; female, BALB/C, mouse, plasma, plasma, non-compartmental analysis, single IV, 7.5 mg/kg (1), 5 mg/kg (2), read-out: Elimination t 1/2 (converted)): 5.2 h
- Cmax ([1]; female, BALB/C, mouse, plasma, compartmental analysis (2-compartment model), single IV, 7.5 mg/kg (1), 5 mg/kg (2)): 43600 ng/mL
- AUC(0-inf) [1, 4]: 67500 ng·h/mL
- clearance [1, 4]: 0.035 mL/min
- AUC(0-inf) [1, 5]: 77400 ng·h/mL
- clearance [1, 5]: 0.03 mL/min
- Cmax ([1]; female, BALB/C, mouse, plasma, non-compartmental analysis, single IV, 7.5 mg/kg (1), 5 mg/kg (2), mean ± S.D., n = 3): 49400 ± 11200 ng/mL
- concentration at 24 h [1, 6]: 210 ± 100 ng/mL
- Vd ([1]; female, BALB/C, mouse, plasma, compartmental analysis, single IV, 7.5 mg/kg (1), 5 mg/kg (2), read-out: V d): 0.0081 L
- AUC(0-t) [1, 5]: 75800 ng·h/mL
- MRT ([1]; female, BALB/C, mouse, plasma, non-compartmental analysis, single IV, 7.5 mg/kg (1), 5 mg/kg (2), read-out: MRT): 3.3 h
- maximum plasma concentration relative to effective concentration for PSA mRNA downregulation in cell culture ([1]; plasma C max vs cell culture effective concentration): over 3 times

SMILES: CC(=O)N[C@@H](CNC(=O)c1cc(NC(=O)c2cc(NC(=O)c3cc(NC(=O)c4nccn4C)cn3C)cn2C)cn1C)CC(=O)Nc1cn(C)c(C(=O)Nc2cc(C(=O)Nc3cc(C(=O)Nc4cc(C(=O)NCCCN(C)CCCNC(=O)c5cccc(C(=O)O)c5)n(C)c4)n(C)c3)n(C)c2)n1 [Polyamide 2]
- DNA-binding ability relative to polyamide 1 [2]: without significant changes to its DNA-binding ability
- concentration at 24 h [1, 6]: 490 ± 200 ng/mL
- C max ([1]; plasma, compartmental analysis (2-compartment model), single IV, 7.5 mg/kg (1), 5 mg/kg (2)): 40200 ng/mL
- AUC0–∞ [1, 7]: 144800 ng·h/mL
- CL [1, 7]: 0.7 mL/h
- Vd [1, 7]: 0.004 L
- t 1/2 α (initial) [1, 7]: 6 min
- t 1/2 β (terminal) [1, 7]: 4.2 h
- AUC0–t [1, 8]: 173500 ng·h/mL
- AUC0–∞ [1, 8]: 176500 ng·h/mL
- CL [1, 8]: 0.6 mL/h
- Elimination t 1/2 [1, 8]: 4.3 h
- MRT [1, 8]: 4.9 h
- C max ([1]; plasma, non-compartmental analysis, single IV, 7.5 mg/kg (1), 5 mg/kg (2), mean ± S.D., n = 3): 41300 ± 5900 ng/mL
- liver microsomal degradation [3]: resistant to liver microsomal degradation
- solubility in aqueous solutions (Aqueous solubility): less soluble than 1; also recorded: relatively poor aqueous solubility

Source: PMC3456924, “Single-dose pharmacokinetic and toxicity analysis of pyrrole–imidazole polyamides in mice” (Cancer Chemotherapy and Pharmacology, 2012)
